Laboratory results from patent US9340590B2 (priority 2011, dated 2016).
Read-outs that look alike come from different tables or passages of the source. Positions of bridges follow the written chain, without caps; N, C: chain ends. Non-standard residues stand in square brackets, D forms with d. Residues, ends and D or L forms follow the SMILES beside them. Trp(1-Me) = Cn1cc(C[C@H](N)C(=O)O)c2ccccc21

Tests used:
Test in all cases: cell-based
hNav1.5 = hNav1.5 (Homo sapiens, UniProt Q14524)
hNav1.3 = hNav1.3 (Homo sapiens, UniProt Q9NY46); conditions: IonWorks Quattro, use-dependent protocol, hNav1.3; read-out: IWQ Use Nav1.3
hNav1.7 = hNav1.7 (Homo sapiens, UniProt Q15858); assay type: cell-based
hNav1.7, sequence (Q15858 whole entry, looked up): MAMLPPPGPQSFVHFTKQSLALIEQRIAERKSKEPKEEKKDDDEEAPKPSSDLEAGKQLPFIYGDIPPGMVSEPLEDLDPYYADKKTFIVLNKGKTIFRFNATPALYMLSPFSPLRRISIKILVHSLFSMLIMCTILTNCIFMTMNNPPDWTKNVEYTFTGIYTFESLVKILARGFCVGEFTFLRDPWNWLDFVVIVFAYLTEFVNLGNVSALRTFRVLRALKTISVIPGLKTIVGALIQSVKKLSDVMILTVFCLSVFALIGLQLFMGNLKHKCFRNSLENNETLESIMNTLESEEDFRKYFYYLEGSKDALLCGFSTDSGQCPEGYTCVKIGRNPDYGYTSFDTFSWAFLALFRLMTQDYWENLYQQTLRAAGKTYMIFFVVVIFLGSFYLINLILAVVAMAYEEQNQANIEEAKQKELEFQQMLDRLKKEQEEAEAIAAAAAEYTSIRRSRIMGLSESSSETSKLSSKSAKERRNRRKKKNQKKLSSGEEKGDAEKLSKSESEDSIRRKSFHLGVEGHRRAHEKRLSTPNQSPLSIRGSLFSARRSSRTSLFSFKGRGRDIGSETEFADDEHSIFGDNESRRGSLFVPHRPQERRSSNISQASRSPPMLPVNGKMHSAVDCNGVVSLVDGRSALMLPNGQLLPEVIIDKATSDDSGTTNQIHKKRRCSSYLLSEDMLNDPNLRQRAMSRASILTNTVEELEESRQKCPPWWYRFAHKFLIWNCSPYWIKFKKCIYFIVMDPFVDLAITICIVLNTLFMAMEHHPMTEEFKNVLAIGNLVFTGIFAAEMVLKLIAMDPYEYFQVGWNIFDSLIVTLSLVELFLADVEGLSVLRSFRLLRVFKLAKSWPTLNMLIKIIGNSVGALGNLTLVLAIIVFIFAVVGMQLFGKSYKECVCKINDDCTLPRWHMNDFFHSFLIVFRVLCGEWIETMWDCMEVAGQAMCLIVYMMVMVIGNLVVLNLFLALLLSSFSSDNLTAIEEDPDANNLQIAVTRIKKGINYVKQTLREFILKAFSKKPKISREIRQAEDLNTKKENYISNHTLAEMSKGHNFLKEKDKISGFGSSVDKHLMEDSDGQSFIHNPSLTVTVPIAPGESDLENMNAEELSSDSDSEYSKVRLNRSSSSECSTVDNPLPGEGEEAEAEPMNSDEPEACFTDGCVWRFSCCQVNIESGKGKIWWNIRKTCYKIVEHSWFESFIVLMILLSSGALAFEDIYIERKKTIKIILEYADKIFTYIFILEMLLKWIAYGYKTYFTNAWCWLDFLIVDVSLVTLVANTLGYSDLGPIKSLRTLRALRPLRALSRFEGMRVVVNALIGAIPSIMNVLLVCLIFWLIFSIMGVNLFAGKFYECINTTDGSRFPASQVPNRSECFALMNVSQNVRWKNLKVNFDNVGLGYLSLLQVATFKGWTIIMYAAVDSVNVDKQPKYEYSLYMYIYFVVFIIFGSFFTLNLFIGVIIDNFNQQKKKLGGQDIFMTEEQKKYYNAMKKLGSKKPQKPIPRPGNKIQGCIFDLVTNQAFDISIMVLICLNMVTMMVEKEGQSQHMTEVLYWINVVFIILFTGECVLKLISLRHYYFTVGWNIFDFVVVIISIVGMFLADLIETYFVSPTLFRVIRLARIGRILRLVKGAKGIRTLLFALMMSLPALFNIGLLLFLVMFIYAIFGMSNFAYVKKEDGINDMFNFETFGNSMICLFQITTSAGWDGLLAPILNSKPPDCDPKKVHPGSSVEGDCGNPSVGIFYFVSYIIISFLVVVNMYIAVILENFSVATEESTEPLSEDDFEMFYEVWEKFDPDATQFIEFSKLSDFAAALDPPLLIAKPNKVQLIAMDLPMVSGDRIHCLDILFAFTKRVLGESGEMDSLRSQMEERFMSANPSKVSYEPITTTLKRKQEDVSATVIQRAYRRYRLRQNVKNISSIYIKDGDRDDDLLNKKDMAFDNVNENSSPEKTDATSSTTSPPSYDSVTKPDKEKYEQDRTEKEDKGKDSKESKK

[1] = IonWorks Quattro, use-dependent protocol, hNav1.5, read-out: IWQ Use Nav1.5
[2] = IonWorks Quattro, use-dependent protocol, hNav1.7, read-out: IWQ Use Nav1.7

hNav1.5, sequence (Q14524 whole entry, looked up): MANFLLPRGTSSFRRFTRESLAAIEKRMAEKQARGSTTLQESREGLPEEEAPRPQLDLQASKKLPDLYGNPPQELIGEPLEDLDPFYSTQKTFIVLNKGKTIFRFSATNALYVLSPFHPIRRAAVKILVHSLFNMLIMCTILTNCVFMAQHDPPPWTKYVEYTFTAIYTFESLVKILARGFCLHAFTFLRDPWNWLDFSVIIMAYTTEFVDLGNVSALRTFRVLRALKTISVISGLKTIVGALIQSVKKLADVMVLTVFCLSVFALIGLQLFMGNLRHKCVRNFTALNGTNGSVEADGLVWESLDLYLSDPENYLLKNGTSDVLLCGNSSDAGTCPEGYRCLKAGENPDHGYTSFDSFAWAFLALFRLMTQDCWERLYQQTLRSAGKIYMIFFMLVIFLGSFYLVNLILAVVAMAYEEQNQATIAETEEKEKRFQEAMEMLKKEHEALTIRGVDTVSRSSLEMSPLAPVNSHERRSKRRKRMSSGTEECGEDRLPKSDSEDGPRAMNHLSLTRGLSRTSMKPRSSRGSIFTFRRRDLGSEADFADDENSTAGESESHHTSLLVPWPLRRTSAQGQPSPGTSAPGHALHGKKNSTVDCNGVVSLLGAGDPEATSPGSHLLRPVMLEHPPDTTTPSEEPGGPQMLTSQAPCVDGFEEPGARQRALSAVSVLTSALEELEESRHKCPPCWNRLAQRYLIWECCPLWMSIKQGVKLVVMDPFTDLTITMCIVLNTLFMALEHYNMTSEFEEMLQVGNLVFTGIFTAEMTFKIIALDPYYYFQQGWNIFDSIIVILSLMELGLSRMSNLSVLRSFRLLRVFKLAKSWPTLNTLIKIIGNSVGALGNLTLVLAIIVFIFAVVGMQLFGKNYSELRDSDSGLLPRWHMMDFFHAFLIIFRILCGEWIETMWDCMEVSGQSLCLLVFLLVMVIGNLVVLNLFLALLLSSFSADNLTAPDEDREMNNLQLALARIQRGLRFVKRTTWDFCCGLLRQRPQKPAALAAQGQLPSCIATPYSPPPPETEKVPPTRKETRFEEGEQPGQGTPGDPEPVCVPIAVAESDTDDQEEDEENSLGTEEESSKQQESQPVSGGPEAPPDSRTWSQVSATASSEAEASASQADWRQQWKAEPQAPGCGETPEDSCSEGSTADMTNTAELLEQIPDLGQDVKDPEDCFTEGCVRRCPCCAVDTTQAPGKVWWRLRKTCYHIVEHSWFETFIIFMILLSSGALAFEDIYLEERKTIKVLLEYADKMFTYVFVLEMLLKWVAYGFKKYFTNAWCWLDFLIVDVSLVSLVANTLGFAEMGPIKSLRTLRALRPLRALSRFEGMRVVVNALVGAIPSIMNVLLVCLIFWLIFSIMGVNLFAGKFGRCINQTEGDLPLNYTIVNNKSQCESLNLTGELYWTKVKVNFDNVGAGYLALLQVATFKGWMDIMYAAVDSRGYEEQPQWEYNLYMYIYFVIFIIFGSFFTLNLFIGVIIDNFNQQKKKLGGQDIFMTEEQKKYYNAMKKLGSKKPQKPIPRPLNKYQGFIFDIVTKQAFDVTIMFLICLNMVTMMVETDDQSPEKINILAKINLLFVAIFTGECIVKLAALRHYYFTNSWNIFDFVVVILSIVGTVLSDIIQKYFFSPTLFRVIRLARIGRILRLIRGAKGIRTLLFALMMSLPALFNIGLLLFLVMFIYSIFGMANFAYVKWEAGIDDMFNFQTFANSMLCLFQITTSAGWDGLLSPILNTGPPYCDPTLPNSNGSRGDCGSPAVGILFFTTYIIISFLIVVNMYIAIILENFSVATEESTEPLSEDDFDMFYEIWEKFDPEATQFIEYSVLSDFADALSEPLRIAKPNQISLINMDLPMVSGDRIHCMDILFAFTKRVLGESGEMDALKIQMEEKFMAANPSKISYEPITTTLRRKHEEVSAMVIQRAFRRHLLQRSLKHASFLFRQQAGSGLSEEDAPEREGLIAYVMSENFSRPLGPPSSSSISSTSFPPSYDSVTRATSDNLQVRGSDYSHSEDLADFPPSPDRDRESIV

## CC[C@H](C)[C@@H]1NC(=O)[C@@H]2CSSC[C@@H]3NC(=O)[C@H](C(C)C)NC(=O)[C@H](CC(C)C)NC(=O)[C@H](CC(N)=O)NC(=O)[C@@H]4CCCN4C(=O)[C@H](CCCNC(=N)N)NC(=O)[C@H](CSSC[C@H](NC(=O)[C@@H](N)CC(=O)O)C(=O)N[C@@H](CC(C)C)C(=O)NCC(=O)N(C)[C@@H](CC(C)C)C(=O)N[C@@H](CCSC)C(=O)N[C@@H](CCCNC(=N)N)C(=O)N[C@@H](CCCCN)C(=O)N2)NC(=O)[C@H](CSSC[C@@H](C(=O)N[C@@H](CCCCN)C(=O)N[C@@H](Cc2ccc(O)cc2)C(=O)N[C@H](C(=O)N[C@@H](Cc2ccccc2)C(N)=O)C(C)C)NC(=O)[C@H](Cc2c[nH]c4ccccc24)NC(=O)[C@H](CCCCN)NC(=O)[C@H](Cc2cnc[nH]2)NC(=O)[C@H]([C@@H](C)O)NC(=O)[C@H](CCCNC(=N)N)NC(=O)[C@H](CO)NC3=O)NC(=O)[C@H](CCCCN)NC(=O)[C@H](CC(=O)O)NC(=O)[C@H](CC(N)=O)NC(=O)[C@H](CC(=O)O)NC(=O)[C@@H]2CCCN2C1=O [compound 688]
hNav1.5; IWQ Use Nav1.5
  IC50: > 5000 nM
hNav1.3
  IC50: 730 nM
hNav1.7
  IC50: 290 nM

## CC[C@H](C)[C@@H]1NC(=O)[C@@H]2CSSC[C@@H]3NC(=O)[C@H](C(C)C)NC(=O)[C@H](CC(C)C)NC(=O)[C@H](CC(N)=O)NC(=O)[C@@H]4CCCN4C(=O)[C@H](CCCNC(=N)N)NC(=O)[C@H](CSSC[C@H](NC(=O)[C@@H](N)CC(=O)O)C(=O)N[C@@H](CC(C)C)C(=O)NCC(=O)N[C@@H](Cc4ccccc4Cl)C(=O)N[C@@H](CCSC)C(=O)N[C@@H](CCCNC(=N)N)C(=O)N[C@@H](CCCCN)C(=O)N2)NC(=O)[C@H](CSSC[C@@H](C(=O)N[C@@H](CCCCN)C(=O)N[C@@H](Cc2ccc(O)cc2)C(=O)N[C@H](C(=O)N[C@@H](Cc2ccccc2)C(N)=O)C(C)C)NC(=O)[C@H](Cc2c[nH]c4ccccc24)NC(=O)[C@H](CCCCN)NC(=O)[C@H](Cc2c[nH]cn2)NC(=O)[C@H]([C@@H](C)O)NC(=O)[C@H](CCCNC(=N)N)NC(=O)[C@H](CO)NC3=O)NC(=O)[C@H](CCCCN)NC(=O)[C@H](CC(=O)O)NC(=O)[C@H](CC(N)=O)NC(=O)[C@H](CC(=O)O)NC(=O)[C@@H]2CCCN2C1=O [compound 689]
hNav1.5; [1]
  IC50: > 5000 nM
hNav1.3
  IC50: 110 nM
hNav1.7; [2]
  IC50: 130 nM

## CC[C@H](C)[C@@H]1NC(=O)[C@@H]2CSSC[C@@H]3NC(=O)[C@H](C(C)C)NC(=O)[C@H](CC(C)C)NC(=O)[C@H](CC(N)=O)NC(=O)[C@@H]4CCCN4C(=O)[C@H](CCCNC(=N)N)NC(=O)[C@H](CSSC[C@H](NC(=O)[C@@H](N)CC(=O)O)C(=O)N[C@@H](CC(C)C)C(=O)NCC(=O)N[C@@H](CCc4ccccc4)C(=O)N[C@@H](CCSC)C(=O)N[C@@H](CCCNC(=N)N)C(=O)N[C@@H](CCCCN)C(=O)N2)NC(=O)[C@H](CSSC[C@@H](C(=O)N[C@@H](CCCCN)C(=O)N[C@@H](Cc2ccc(O)cc2)C(=O)N[C@H](C(=O)N[C@@H](Cc2ccccc2)C(N)=O)C(C)C)NC(=O)[C@H](Cc2c[nH]c4ccccc24)NC(=O)[C@H](CCCCN)NC(=O)[C@H](Cc2c[nH]cn2)NC(=O)[C@H]([C@@H](C)O)NC(=O)[C@H](CCCNC(=N)N)NC(=O)[C@H](CO)NC3=O)NC(=O)[C@H](CCCCN)NC(=O)[C@H](CC(=O)O)NC(=O)[C@H](CC(N)=O)NC(=O)[C@H](CC(=O)O)NC(=O)[C@@H]2CCCN2C1=O [compound 690]
hNav1.5; IWQ Use Nav1.5
  IC50: > 5000 nM
hNav1.3
  IC50: 180 nM
hNav1.7; [2]
  IC50: 90 nM

## CC[C@H](C)[C@@H]1NC(=O)[C@@H]2CSSC[C@@H]3NC(=O)[C@H](C(C)C)NC(=O)[C@H](CC(C)C)NC(=O)[C@H](CC(N)=O)NC(=O)[C@@H]4CCCN4C(=O)[C@H](CCCNC(=N)N)NC(=O)[C@H](CSSC[C@H](NC(=O)[C@@H](N)CC(=O)O)C(=O)N[C@@H](CC(C)C)C(=O)NCC(=O)N[C@@H](C)C(=O)N[C@@H](CCSC)C(=O)N[C@@H](CCCNC(=N)N)C(=O)N[C@@H](CCCCN)C(=O)N2)NC(=O)[C@H](CSSC[C@@H](C(=O)N[C@@H](CCCCN)C(=O)N[C@@H](Cc2cn(C)c4ccccc24)C(=O)N[C@H](C(=O)N[C@@H](Cc2ccccc2)C(N)=O)C(C)C)NC(=O)[C@H](Cc2c[nH]c4ccccc24)NC(=O)[C@H](CCCCN)NC(=O)[C@H](Cc2c[nH]cn2)NC(=O)[C@H]([C@@H](C)O)NC(=O)[C@H](CCCNC(=N)N)NC(=O)[C@H](CO)NC3=O)NC(=O)[C@H](CCCCN)NC(=O)[C@H](CC(=O)O)NC(=O)[C@H](CC(N)=O)NC(=O)[C@H](CC(=O)O)NC(=O)[C@@H]2CCCN2C1=O [compound 692] (H-DCLGAMRKCIPDNDKCCRPNLVCSRTHKWCK[Trp(1-Me)]VF-NH2; disulfide 2-17, 9-23, 16-30)
hNav1.5; [1]
  IC50: > 5000 nM
hNav1.3
  IC50: 630 nM
hNav1.7; [2]
  IC50: 180 nM

## CC[C@H](C)[C@@H]1NC(=O)[C@@H]2CSSC[C@@H]3NC(=O)[C@H](C(C)C)NC(=O)[C@H](CC(C)C)NC(=O)[C@H](CC(N)=O)NC(=O)[C@@H]4CCCN4C(=O)[C@H](CCCNC(=N)N)NC(=O)[C@H](CSSC[C@H](NC(=O)[C@@H](N)CC(=O)O)C(=O)N[C@@H](CC(C)C)C(=O)NCC(=O)N[C@@H](CCSC)C(=O)N[C@@H](CCSC)C(=O)N[C@@H](CCCNC(=N)N)C(=O)N[C@@H](CCCCN)C(=O)N2)NC(=O)[C@H](CSSC[C@@H](C(=O)N[C@@H](CCCCN)C(=O)N[C@@H](Cc2cn(C)c4ccccc24)C(=O)N[C@H](C(=O)N[C@@H](Cc2ccccc2)C(N)=O)C(C)C)NC(=O)[C@H](Cc2c[nH]c4ccccc24)NC(=O)[C@H](CCCCN)NC(=O)[C@H](Cc2c[nH]cn2)NC(=O)[C@H]([C@@H](C)O)NC(=O)[C@H](CCCNC(=N)N)NC(=O)[C@H](CO)NC3=O)NC(=O)[C@H](CCCCN)NC(=O)[C@H](CC(=O)O)NC(=O)[C@H](CC(N)=O)NC(=O)[C@H](CC(=O)O)NC(=O)[C@@H]2CCCN2C1=O [compound 693] (H-DCLGMMRKCIPDNDKCCRPNLVCSRTHKWCK[Trp(1-Me)]VF-NH2; disulfide 2-17, 9-23, 16-30)
hNav1.5; [1]
  IC50: > 5000 nM
hNav1.3
  IC50: 100 nM
hNav1.7; [2]
  IC50: 46 nM

## CC[C@H](C)[C@@H]1NC(=O)[C@@H]2CSSC[C@@H]3NC(=O)[C@H](C(C)C)NC(=O)[C@H](CC(C)C)NC(=O)[C@H](CC(N)=O)NC(=O)[C@@H]4CCCN4C(=O)[C@H](CCCNC(=N)N)NC(=O)[C@H](CSSC[C@H](NC(=O)[C@@H](N)CC(=O)O)C(=O)N[C@@H](CC(C)C)C(=O)N[C@@H](CCCNC(=N)N)C(=O)N[C@@H](CCSC)C(=O)N[C@@H](CCSC)C(=O)N[C@@H](CCCNC(=N)N)C(=O)N[C@@H](CCCCN)C(=O)N2)NC(=O)[C@H](CSSC[C@@H](C(=O)N[C@@H](CCCCN)C(=O)N[C@@H](Cc2ccc(O)cc2)C(=O)N[C@H](C(=O)N[C@@H](Cc2ccccc2)C(N)=O)C(C)C)NC(=O)[C@H](Cc2c[nH]c4ccccc24)NC(=O)[C@H](CCCCN)NC(=O)[C@H](Cc2c[nH]cn2)NC(=O)[C@H]([C@@H](C)O)NC(=O)[C@H](CCCNC(=N)N)NC(=O)[C@H](CO)NC3=O)NC(=O)[C@H](CCCCN)NC(=O)[C@H](CC(=O)O)NC(=O)[C@H](CC(N)=O)NC(=O)[C@H](CC(=O)O)NC(=O)[C@@H]2CCCN2C1=O [compound 694] (H-DCLRMMRKCIPDNDKCCRPNLVCSRTHKWCKYVF-NH2; disulfide 2-17, 9-23, 16-30)
hNav1.5; [1]
  IC50: > 5000 nM
hNav1.3
  IC50: 290 nM
hNav1.7; [2]
  IC50: 80 nM

## CC[C@H](C)[C@@H]1NC(=O)[C@@H]2CSSC[C@@H]3NC(=O)[C@H](C(C)C)NC(=O)[C@H](CC(C)C)NC(=O)[C@H](CC(N)=O)NC(=O)[C@H](CO)NC(=O)[C@H](CCCNC(=N)N)NC(=O)[C@H](CSSC[C@H](NC(=O)[C@@H](N)CC(=O)O)C(=O)N[C@@H](CC(C)C)C(=O)NCC(=O)N[C@@H](Cc4ccccc4)C(=O)N[C@@H](CCSC)C(=O)N[C@@H](CCCNC(=N)N)C(=O)N[C@@H](CCCCN)C(=O)N2)NC(=O)[C@H](CSSC[C@@H](C(=O)N[C@@H](CCCCN)C(=O)N[C@@H](Cc2cn(C)c4ccccc24)C(=O)N[C@H](C(=O)N[C@@H](Cc2ccccc2)C(N)=O)C(C)C)NC(=O)[C@H](Cc2c[nH]c4ccccc24)NC(=O)[C@H](CCCCN)NC(=O)[C@H](Cc2c[nH]cn2)NC(=O)[C@H]([C@@H](C)O)NC(=O)[C@H](CCCNC(=N)N)NC(=O)[C@H](CO)NC3=O)NC(=O)[C@H](CCCCN)NC(=O)[C@H](CC(=O)O)NC(=O)[C@H](CC(N)=O)NC(=O)[C@H](CC(=O)O)NC(=O)[C@@H]2CCCN2C1=O [compound 695] (H-DCLGFMRKCIPDNDKCCRSNLVCSRTHKWCK[Trp(1-Me)]VF-NH2; disulfide 2-17, 9-23, 16-30)
hNav1.5; [1]
  IC50: > 5000 nM
hNav1.3
  IC50: 30 nM
hNav1.7; [2]
  IC50: 30 nM

## CC[C@H](C)[C@@H]1NC(=O)[C@@H]2CSSC[C@@H]3NC(=O)[C@H](C(C)C)NC(=O)[C@H](CC(C)C)NC(=O)[C@H](CC(N)=O)NC(=O)[C@@H]4CCCN4C(=O)[C@H](CCCNC(=N)N)NC(=O)[C@H](CSSC[C@H](NC(=O)[C@@H](N)CC(=O)O)C(=O)N[C@@H](CC(C)C)C(=O)NCC(=O)N[C@@H](C)C(=O)NCC(=O)N[C@@H](CCCNC(=N)N)C(=O)N[C@@H](CCCCN)C(=O)N2)NC(=O)[C@H](CSSC[C@@H](C(=O)N[C@@H](CCCCN)C(=O)N[C@@H](Cc2ccc(O)cc2)C(=O)N[C@H](C(=O)N[C@@H](Cc2ccccc2)C(N)=O)C(C)C)NC(=O)[C@H](Cc2c[nH]c4ccccc24)NC(=O)[C@H](CCCCN)NC(=O)[C@H](Cc2c[nH]cn2)NC(=O)[C@H]([C@@H](C)O)NC(=O)[C@H](CCCNC(=N)N)NC(=O)[C@H](CO)NC3=O)NC(=O)[C@H](CCCCN)NC(=O)[C@H](CC(=O)O)NC(=O)[C@H](CC(N)=O)NC(=O)[C@H](CC(=O)O)NC(=O)[C@@H]2CCCN2C1=O [compound 697] (H-DCLGAGRKCIPDNDKCCRPNLVCSRTHKWCKYVF-NH2; disulfide 2-17, 9-23, 16-30)
hNav1.5; [1]
  IC50: > 5000 nM
hNav1.3
  IC50: 4400 nM
hNav1.7; [2]
  IC50: 8100 nM
